Source: ChEMBL document CHEMBL5215006, “Antitumor Activity of Piceamycin by Upregulation of N-Myc Downstream-Regulated Gene 1 in Human Colorectal Cancer Cells” (J Nat Prod, 2022)

Experiment: Toxicity in Balb/c mouse xenografted with human HCT-116 cells assessed as body weight change at 10 mg/kg,ip administrated for 18 days by 3 times per week
Assay type: organism-based
Settings: in vivo, 432 h, time 18 day

With `CCc1c2c(nc3ccc(OC(=O)N4CCC(N5CCCCC5)CC4)cc13)-c1cc3c(c(=O)n1C2)COC(=O)[C@]3(O)CC` [IRINOTECAN] as the compound, how does the Activity read?
The Activity was “Toxic”.
